According to patent publication US5880146A, “Inhibition of IL-12-induced IFN-γ synthesis by specific bis-phenol compounds as a method of immune modulation” (Fuji ImmunoPharmaceuticals Corporation, priority 1995, dated 1999):
“Also recorded” adds a separate entry of the source.

How the values were obtained:
[1] = Cell viability (MTS) after treatment with bis-compound; assay type: cell-based; details: human, pha-activated pbmc, 5 μg/ml
Description: Human peripheral blood monocytes (PBMC) were obtained from commercial sources as a leukophoresis from a healthy volunteer and were purified by centrifugation on a Ficoll-Hypaque (Pharmacia) gradient (1700 rpm for 20 min). The "buffy" coat containing the PBMC was diluted with serum-free culture medium (SF-RPMI) to a volume of 50 ml and collected by centrifugation at 1500 rpm for 5 min. Cells were resuspended in cell culture medium containing 10% fetal bovine serum (RPMI-10) and phytohemaglutinin (PHA - 10 μg/ml) at a density of 5×10^6 cells/ml and were cultured for 3 days at 37° C. in a humidified CO2 incubator. The PHA-activated cells were collected by centrifugation, washed three times with an equal volume of SF-RPMI and resuspended in fresh RPMI-10 (1×10^6 cells /ml). Aliquots (100 μl) were dispensed into the wells of multiple 96-well plates to give a final cell number of 10^5 per well. Test compounds, dissolved in dimethyl sulfoxide (DMSO) at 1 mg/ml, were first diluted in culture medium to an intermediate concentration of 20 μg/ml and then were added (50 μwell) to a specific well of the plate for each compound. Stimulation medium (50 μl/well) containing 10% serum, IL-2 and IL-12 was added to final concentrations of 25 U/ml and 0.5 ng/ml, respectively. Control wells receive no IL-2 or IL-12 (negative control) or received both interleukins but no test compound (positive control). The plates were incubated for 48 hr at 37° C. in a CO2 incubator at which time aliquots (20 μl) were removed for analysis of IFN-γ concentration by ELISA. A quantitative ELISA was developed by coating 96-well plates with an mouse monoclonal antibody against human IFN-γ, 1 μg/ml in phosphate buffered saline (PBS) (Pestka Biological Laboratories), overnight at 4° C. Unbound antibody was washed off by washing three times with PBS. Non-specific antibody binding was blocked with a solution of 1% bovine serum albumin (BSA) and 1% goat serum in PBS (150 μl/well) which was incubated for 2 hr at 37° C. After washing the blocked plates four times with PBS, test samples and dilutions of the IFN-γ standard are added in a final volume of 100 μl/well. Following an overnight incubation at 4° C., the plates are washed four times with PBS, and a polyclonal rabbit antiserum against human IFN-γ (1/10000 dilution--Petska Biological Laboratories) is added. After an additional incubation for 1 hr at 37° C. and four washes with PBS, a polyclonal donkey anti-rabbit detecting antibody, conjugated to horseradish peroxidase (1/700 dilution--Petska Biological Laboratories) is added for 1 hr at 37° C. The plates are then washed four times with PBS and 100 μl of K-blue substrate E(ILISA Technologies, Neogen Corp.) is added until the color in the wells containing the standard curve is sufficiently developed, at which time 100 μl of "Red-stop" solution (ELISA Technologies) is added. The absorbance of the solution within each well of the plate is then read at 650 nm using an ELISA plate reader (Dynatech MR7000). The amount of IFN-γ is calculated by comparing the optical density of the test sample with a standard curve derived from the dilutions of the control IFN-y. […] MTS is a chemical chromophore that is metabolized in the mitochondria of viable cells to produce a color which increases in intensity in proportion to the numbers of viable cells. The absorbance of the cell culture can be compared to control cultures in order to determine the percent viability.

[2] = system: IL-12 induction of IFN-γ in PHA-activated human PBMC; assay: Screening assay for compounds which inhibit IL-12 induction of IFN-γ (ELISA); assay type: cell-based; details: 5 μg/ml, IL-2 25 U/ml + IL-12 0.5 ng/ml, 48 hr, single test, read-out: % INH of IFNγ
Description: Human peripheral blood monocytes (PBMC) were obtained from commercial sources as a leukophoresis from a healthy volunteer and were purified by centrifugation on a Ficoll-Hypaque (Pharmacia) gradient (1700 rpm for 20 min). The "buffy" coat containing the PBMC was diluted with serum-free culture medium (SF-RPMI) to a volume of 50 ml and collected by centrifugation at 1500 rpm for 5 min. Cells were resuspended in cell culture medium containing 10% fetal bovine serum (RPMI-10) and phytohemaglutinin (PHA - 10 μg/ml) at a density of 5×10^6 cells/ml and were cultured for 3 days at 37° C. in a humidified CO2 incubator. The PHA-activated cells were collected by centrifugation, washed three times with an equal volume of SF-RPMI and resuspended in fresh RPMI-10 (1×10^6 cells /ml). Aliquots (100 μl) were dispensed into the wells of multiple 96-well plates to give a final cell number of 10^5 per well. Test compounds, dissolved in dimethyl sulfoxide (DMSO) at 1 mg/ml, were first diluted in culture medium to an intermediate concentration of 20 μg/ml and then were added (50 μwell) to a specific well of the plate for each compound. Stimulation medium (50 μl/well) containing 10% serum, IL-2 and IL-12 was added to final concentrations of 25 U/ml and 0.5 ng/ml, respectively. Control wells receive no IL-2 or IL-12 (negative control) or received both interleukins but no test compound (positive control). The plates were incubated for 48 hr at 37° C. in a CO2 incubator at which time aliquots (20 μl) were removed for analysis of IFN-γ concentration by ELISA. A quantitative ELISA was developed by coating 96-well plates with an mouse monoclonal antibody against human IFN-γ, 1 μg/ml in phosphate buffered saline (PBS) (Pestka Biological Laboratories), overnight at 4° C. Unbound antibody was washed off by washing three times with PBS. Non-specific antibody binding was blocked with a solution of 1% bovine serum albumin (BSA) and 1% goat serum in PBS (150 μl/well) which was incubated for 2 hr at 37° C. After washing the blocked plates four times with PBS, test samples and dilutions of the IFN-γ standard are added in a final volume of 100 μl/well. Following an overnight incubation at 4° C., the plates are washed four times with PBS, and a polyclonal rabbit antiserum against human IFN-γ (1/10000 dilution--Petska Biological Laboratories) is added. After an additional incubation for 1 hr at 37° C. and four washes with PBS, a polyclonal donkey anti-rabbit detecting antibody, conjugated to horseradish peroxidase (1/700 dilution--Petska Biological Laboratories) is added for 1 hr at 37° C. The plates are then washed four times with PBS and 100 μl of K-blue substrate E(ILISA Technologies, Neogen Corp.) is added until the color in the wells containing the standard curve is sufficiently developed, at which time 100 μl of "Red-stop" solution (ELISA Technologies) is added. The absorbance of the solution within each well of the plate is then read at 650 nm using an ELISA plate reader (Dynatech MR7000). The amount of IFN-γ is calculated by comparing the optical density of the test sample with a standard curve derived from the dilutions of the control IFN-y. The amount of IFN-γ that is induced in the presence of both IL-2 and IL-12 generally ranges from 1200-2000 pg/ml while the amount produced in the absence of IL-12 is generally less than 50 pg/ml. Experimental data are shown in Table 2 which discloses a) the percent inhibition of IFNγ production, relative to a […], when the cells have been treated with a bis-compound at a final concentration of 5 μg/ml of the listed bis-compound (%INH or IFNγ) and b) the percent of cells which are viable after the treatment with 5 μg/ml of the various bis-compounds, determined by adding MTS to the media (% Viability). MTS is a chemical chromophore that is metabolized in the mitochondria of viable cells to produce a color which increases in intensity in proportion to the numbers of viable cells. […]

[3] = system: mice; assay: Toxicity of bis-compounds after single systemic dose; assay type: in vivo; details: 20% DMSO, 16% cremaphor
[4] = as above; assay type: in vivo; details: mouse, in vivo, 20% DMSO, 16% cremaphor, single dose

| SMILES | viability [1] | inhibition at 5 µg/mL [2] | further results |
| --- | --- | --- | --- |
| Cc1cc(Cl)cc(Cc2cc(Cl)cc(C)c2O)c1O [Compound 8296] | 37% | 103% | – |
| Cc1cc(C)c(O)c(C(CCCCCCC(C)C)c2cc(C)cc(C)c2O)c1 [Compound 8302] | 100% | 95% | Results (Dead/Alive) ([3]; 100 mg/kg IV, 10 mg/ml): Alive; Results (Dead/Alive) ([3]; 150 mg/kg IV, 10 mg/ml): Alive; Results (Dead/Alive) ([3]; 200 mg/kg IV, 15 mg/ml): Alive 1; also recorded: Dead 1; LD50 ([4]; iv, conc. sol. 10 mg/ml): > 150 mg/kg; LD50 ([4]; iv, conc. sol. 15 mg/ml): 200 mg/kg |
| Cc1cc(C)c(O)c(Cc2cc(C)cc(C)c2O)c1 [Compound 51850] | 97% | 77% | Results (Dead/Alive) ([3]; 100 mg/kg IV, 10 mg/ml): Alive; Results (Dead/Alive) ([3]; 150 mg/kg IV, 10 mg/ml): Alive; LD50 ([4]; iv, conc. sol. 10 mg/ml): > 150 mg/kg |
| CCCC(c1cc(C)cc(C)c1O)c1cc(C)cc(C)c1O [Compound 51851] | 107% | 86% | – |
| CC(C)(C)c1cc2c(cc1O)C(C)(C)c1cc(O)c(C(C)(C)C)cc1O2 [Compound 53433] | 26% | 97% | – |
| CC(C)(C)CC(C)(C)c1cc2c(cc1O)C(C)(C)c1cc(O)c(C(C)(C)CC(C)(C)C)cc1O2 [Compound 53437] | 85% | 74% | – |
| Cc1cc(C(c2cc(C)c(O)c(C)c2)c2ccc(O)c(O)c2)cc(C)c1O [Compound 54004] | 99% | -37% | – |
| Cc1cc(C(C)c2cc(C)cc(C(C)(C)C)c2O)c(O)c(C(C)(C)C)c1 [Compound 54005] | 30% | 96% | – |
| Cc1cc(O)c(C(C)C)cc1C(c1ccccc1)c1cc(C(C)C)c(O)cc1C [Compound 54007] | 26% | 95% | – |
| CCC(c1cc(C)cc(C(C)(C)C)c1O)c1cc(C)cc(C(C)(C)C)c1O [Compound 54008] | 69% | 91% | – |
| Cc1cc(C(c2ccc(Cl)cc2)c2cc(C)c(O)c(C)c2)cc(C)c1O [Compound 54042] | 102% | 28% | – |
| Cc1cc(C(C)(C)c2cc(C)c(O)c(C)c2)cc(C)c1O [Compound 54046] | 95% | – | Results (Dead/Alive) ([3]; 100 mg/kg IV, 10 mg/ml): Alive; Results (Dead/Alive) ([3]; 150 mg/kg IV, 10 mg/ml): Alive; LD50 ([4]; IV, conc. sol. 10 mg/ml): > 150 mg/kg |
| Cc1cc(C2(c3ccc(O)c(C)c3)CCCCC2)ccc1O [Compound 54048] | 79% | 68% | – |
| Cc1cc(C(c2ccc(C(=O)O)cc2)c2cc(C)c(O)c(C)c2)cc(C)c1O [Compound 54050] | 86% | 63% | – |
| Cc1cc(C(c2ccc([N+](=O)[O-])cc2)c2cc(C)c(O)c(C(C)(C)C)c2)cc(C(C)(C)C)c1O [Compound 54053] | 33% | 93% | – |
| Cc1cc(C(C)c2cc(C)c(O)c(C(C)(C)C)c2)cc(C(C)(C)C)c1O [Compound 54054] | 27% | 98% | – |
| CC(C)(C)c1cc(C(c2ccc(C(=O)O)cc2)c2cc(C(C)(C)C)c(O)c(C(C)(C)C)c2)cc(C(C)(C)C)c1O [Compound 54055] | 88% | 83% | – |
| CCC(C)(c1cc(C)c(O)c(C)c1)c1cc(C)c(O)c(C)c1 [Compound 54056] | 87% | 84% | – |
| Cc1cc(C(c2ccccc2)c2cc(C)c(O)c(C(C)(C)C)c2)cc(C(C)(C)C)c1O [Compound 54058] | 86% | 88% | – |
| CCCCCCC(C)(c1ccc(O)cc1)c1ccc(O)c(C)c1 (stereo not drawn) [Compound 54059] | 88% | 64% | – |
| CCCC(C)(c1ccc(O)cc1)c1ccc(O)c(C)c1 (stereo not drawn) [Compound 54063] | 93% | – | – |
| CCCCCCC(C)(c1ccc(O)c(C)c1)c1ccc(O)c(C)c1 [Compound 54094] | 25% | – | – |
| CCCC(CCC)(c1ccc(O)cc1)c1ccc(O)c(C)c1 [Compound 54099] | 93% | – | – |
| CCC(c1cc(C)c(O)c(C(C)C)c1)c1cc(C)c(O)c(C(C)C)c1 [Compound 54109] | 33% | 93% | – |
| Cc1cc(C(c2ccc(C(C)C)cc2)c2cc(C)c(O)c(C)c2)cc(C)c1O [Compound 54114] | 96% | 65% | – |
| Cc1cc(C(c2ccc(C(=O)O)cc2)c2cc(C)c(O)c(C(C)(C)C)c2)cc(C(C)(C)C)c1O [Compound 54346] | 84% | 91% | – |
| CCC(c1cc(C)c(O)c(C)c1)c1cc(C)c(O)c(C)c1 [Compound 54471] | 83% | 89% | – |
| CCC(c1cc(C)c(O)c(C(C)(C)C)c1)c1cc(C)c(O)c(C(C)(C)C)c1 [Compound 54472] | 26% | 98% | – |
